Data on one compound can be found in patent US11285132B2, “Uses of indolinone compounds” (Oncternal Therapeutics, Inc., priority 2016, dated 2022).

Assay type in all cases: cell-based
The subject of one test is DLBCL cell lines. In words: Median-effect combination analysis (CalcuSyn, Chou/Talalay CI). An excerpt:
The median-effect analysis was used to determine synergism, antagonism, or additivity of TK216 when combined with ABT199 (BCL-2i) and ACP196 (BTKi).
The inhibition of the EWS-FLI1 oncogene offers a promising approach for the treatment of Ewing Sarcoma, e.g., relapsed/refractory Ewing Sarcoma.

The target of the next test is T1, SPIB to DDX5 (Homo sapiens, UniProt Q01892).
T1 construct: endogenous in cells
In words: Co-IP of SPIB with helicases in ABC DLBCL cell lines. Particulars: 500 nM, 4-10 h. The text has this: With the aim to understand the mechanism of action of YK-4-279 and TK-216, the baseline RNA expression levels of the different ETS factors were correlated with sensitivity to the drugs. SPIB was the gene presenting the most significant negative correlation with both YK-4-279 and TK-216, especially among the ABC DLBCL cell lines (P<0.05). SPIB is a known oncogene for ABC DLBCL (Lenz et al, PNAS 2008) and is involved in the response to lenalidomide in ABC DLBCL (Yang et al, Cancer Cell 2012). YK-4-279 inhibits the binding of EWS1-FLI1 to the helicases RHA and DDX5 (Selvanathan et al, PNAS 2012). Thus, it was assessed whether YK-4-279 and TK-216 can have a similar effect on SPIB and whether they induce cellular effects similar to lenalidomide. […] In ABC DLBCL, the ETS inhibitor YK-4-279 and its clinical derivative TK-216 interfere with SPIB and helicases involved in RNA editing. Moreover, both compounds act similarly to lenalidomide inhibiting IRF4 and upregulating IRF7 and synergize with the IMID in both ABC DLBCL and MCL.

The target of another test is T2, EWS-FLI1 (Homo sapiens, UniProt Q01543+Q01844).
T2 construct: EWS (part of EWSR1, Q01844); expressed in transfected cells; host or cells: COS7
Kind of test: EWS-FLI1 / NROB1 reporter-luciferase transcription in COS7 cells. As to conditions: COS7 cells transfected with a EWS-FLI1 responsive promoter; read-out: EC50, transcriptional decrease. An excerpt: (§1) TK216 is a first in class, small molecule that directly binds EWS-FLI1 inhibiting the biological activity of ETS-family transcription factor oncoproteins and is currently under clinical investigation in patients with Ewing sarcoma.
TK216 reduced transcriptional activity in COS7 cells co-transfected with EWS-FLI1 and NROB1 reporter-luciferase plasmids which contain EWS-FLI1 DNA-binding sites, as shown in FIG. 3.

Another test relates to A4573 cells. In words: Proliferation of Ewing sarcoma A4573 cell line. As to conditions: A4573 cells (EWS-FLI1 expressing Ewing sarcoma cell line); read-out: EC50, inhibition of proliferation.
Text: as §1

T2 sequence (Q01543 220-452 limits assumed, one chain of several): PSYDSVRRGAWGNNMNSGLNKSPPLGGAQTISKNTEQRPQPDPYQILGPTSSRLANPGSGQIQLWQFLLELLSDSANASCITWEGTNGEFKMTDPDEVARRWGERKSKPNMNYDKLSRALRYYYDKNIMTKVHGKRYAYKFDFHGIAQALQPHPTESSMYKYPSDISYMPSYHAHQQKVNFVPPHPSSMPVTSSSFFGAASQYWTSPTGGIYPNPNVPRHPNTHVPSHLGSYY
T1 sequence (Q01892 whole entry): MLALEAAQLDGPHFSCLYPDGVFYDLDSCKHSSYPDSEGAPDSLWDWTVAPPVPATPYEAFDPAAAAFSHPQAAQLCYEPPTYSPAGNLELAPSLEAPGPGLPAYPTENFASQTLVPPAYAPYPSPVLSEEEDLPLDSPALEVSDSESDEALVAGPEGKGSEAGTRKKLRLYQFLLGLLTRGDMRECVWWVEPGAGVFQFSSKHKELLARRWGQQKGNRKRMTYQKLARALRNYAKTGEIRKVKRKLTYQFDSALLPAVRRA

As to `O=C(CC1(O)C(=O)Nc2c(Cl)ccc(Cl)c21)c1ccc(C2CC2)cc1` (centres unmarked) [TK216, 4,7-Dichloro-3-(2-(4-cyclopropylphenyl)-2-oxoethyl)-3-hydroxyindolin-2-one], the “combination effect with ABT199 (BCL-2i), Combination Index” value in the test with DLBCL cell lines (combined with ABT199) is “synergy”. Also, the “combination effect with ACP196 (BTKi), Combination Index” value with DLBCL cell lines (combined with ACP196) is “synergy”. The “binding of SPIB to DDX5” value on SPIB to DDX5 is “to a lesser extent, to DDX5 was decreased”. In addition, the EC50 at EWS-FLI1 is less than 100 nM; in the test on A4573 cells, less than 200 nM.
